# Source: patent EP0059817A1, “Serpentine, alstonine and sempervirine drugs for the specific inhibition of tumurous and cancerous cells” (priority 1981, dated 1982)
# Legend:
# [1] = tested on: Cellules Hela; assay: cell culture cytotoxicity, cancer cells; assay type: cell-based; conditions: 150 µg dès l'ensemencement (per ml of culture); culture de 3 jours
# Experimental: (§1) L'effet cytotoxique spécifique, vis-à-vis des cellules tumorales utilisées, ne s'est jamais démenti au cours des très nombreuses expériences effectuées. Par contre, pour effectuer les cellules saines il a fallu des quantités d'alcaloides au moins dix fois plus grandes (plus de 2 mg/ml). (Les cultures de cellules in-vitro sans mycoplàsmes ont été effectuées dans les conditions classiques et en l'absence d'antibiotique qui pourraient fausser les résultats).
# (§2) Les cellules cancéreuses et saines utilisées ne contenaient pas de mycoplasmes et le milieu de culture ne contenait pas d'antibiotique, ces derniers pouvant sensibiliser les cellules et par conséquent fausser les résultats.
# [2] = tested on: Cellules L; assay: cell culture cytotoxicity, cancer cells; assay type: cell-based; conditions: 150 µg dès l'ensemencement (per ml of culture)
# Experimental: as §1, §2
# [3] = tested on: Cellules K.B.; assay: cell culture cytotoxicity, cancer cells; assay type: cell-based
# Experimental: as §1, §2
# [4] = tested on: Cellules "Vero" (cellules de lignée); assay: cell culture cytotoxicity, normal cells; assay type: cell-based; conditions: 150 µg dès l'ensemencement (per ml of culture)
# Experimental: as §1, §2
# [5] = tested on: lymphome YC 8; assay: lymphoma YC 8 of the mouse, flavopéreirine; assay type: in vivo, souris BALB c; conditions: for survie (surviving mice/total): i.p. 2 x 150 µg per day, 10 days from 24 h after inoculation
# Text: En ce qui concerne l'activité de la flavopéreirine vis-à-vis du lumphome YC 8 de la souris, 30 souris BALB c de 19-20 g ont été inoculées par voie intrapéritonéale par 10^4 cellules ascitiques du lymphome YC 8 fraîchement prélevées et en pleine division chez la souris.
# Dix souris ont été gardées comme témoins et 20 souris ont été traitées 24 heures après inoculation.
# La flavopéreirine est dissoute en milieu physiologique tamponné (pH 7,65) et deux injections par voie intrapéritonéale et par jour sont administrées, (2 x 150 µg de flavopéreirine) et ceci pendant 10 jours consécutifs.
# [6] = tested on: cellules cancéreuses; assay: cell culture cytotoxicity, cancer cells as a group; assay type: cell-based; conditions: 150 µg par ml de culture
# Experimental: as §1, §2
# [7] = tested on: virus de la vaccine; set-up: species or system lapin; conditions: in vivo
# [8] = tested on: virus de la grippe; assay type: in vivo, souris SWISS; conditions: doses comparables
# [9] = tested on: Cellules primaires de reins de singe; assay: cell culture cytotoxicity, normal cells; assay type: cell-based
# Experimental: Des cultures de cellules saines (cellules primaires de reins de singe, cellules de lignée "Vero" et "SIRC") et des cultures de cellules cancéreuses (cellules K.B., cellules Hela, cellules Hep II et cellules L)ont reçu une dose de 200 Mg, soit de serpentine, soit d'alstonine, soit de sempervirine, par ml de culture.
# as §1, §2
# [10] = tested on: ascite d'Ehrlich; assay: Ehrlich ascites tumour in the mouse, flavopéreirine; assay type: in vivo, souris SWISS; conditions: for survie (surviving mice/total): i.p. 2 x 150 µg per day, 10 days from 24 h after inoculation
# Experimental: En ce qui concerne l'activité de la flavopéreirine, vis-à-vis des tumeurs ascites d'Ehrlich de la souris, 30 souris SWISS de 20- 22 g ont été inoculées par voie intrapérito néale par 5 x 10^3 cellules ascite d'Ehrlich fraîchement prélevées.
# Dix souris ont été gardées témoins et 20 souris ont été traitées 24 heures après l'inoculation par la flavopéreirine à raison de deux fois par jours (2 x 150 µg) par voie intrapéritonéale et pendant 10 jours consécutifs.
# Les résultats du tableau VIII ci-après illustrent la survie des animaux pendant trois mois (une survie de plusieurs jours n'est pas prise en considération).
# [11] = tested on: cellules saines; assay: cell culture cytotoxicity, healthy cells as a group; assay type: cell-based; conditions: 150 µg par ml de culture
# Experimental: as §1, §2
# [12] = 150 µg dès l'ensemencement (per ml of culture)
compound,measurement,setting,value
CCc1ccc2c3[nH]c4ccccc4c3cc[n+]2c1 [flavopéreirine],destruction des cellules,[1],- Destruction to-tale en 24-48 heures
same,destruction des cellules,[2],- Destruction to-tale en 24-48 heures.
same,destruction des cellules,[3]; [12],- Destruction to-tale en 24-48 heures
same,destruction des cellules,"[3]; 200 µg/ml, en culture de 3 jours dès l'ensemencement",Destruction totale en 24-48 heures
same,destruction des cellules,[4],- Pas de destruc-tion pendant 7 jours
same,survie (surviving mice/total),[5]; day 0,20/20
same,survie (surviving mice/total),[5]; day 21,20/20
same,survie (surviving mice/total),[5]; day 60,17/20
same,survie (surviving mice/total),[5]; day 90,17/20
same,state of the surviving mice,"[5]; voie I.P., more than three months of observation",développement étant tout à fait normal
same,"survie de trois mois, share of treated mice","[5]; voie sous-cutanée, 2 x 150 µg per day, 10 days",70-80%
same,destruction des cellules cancéreuses,[6],détruites en 24-48 heures
same,appearance of papules,[7],empêche l'apparition et le développement des papules virales
same,activity against influenza compared with sempervirine,[8],résultats tout à fait comparables
same,destruction des cellules,[9]; [12],- Pas de destruc-tion pendant 7 jours
same,destruction des cellules,"[9]; 200 µg/ml, en culture de 7 jours dès l'ensemencement",Pas de destruction pendant 8 jours
same,survie (surviving mice/total),[10]; day 0,20/20
same,survie (surviving mice/total),[10]; day 24,17/20
same,survie (surviving mice/total),[10]; day 60,11/20
same,survie (surviving mice/total),[10]; day 90,11/20
same,guérison (in words),"[10]; flavopéreirine alone, three months of observation, same results in souris BALB c",permet la guérison d'un important pourcentage de souris
same,destruction des cellules saines,[11],ne sont pas détruites pendant les 7 jours d'observation
